The results in this text go back to patent US12140559B2, “Cell analysis using ChemFET sensor array-based systems” (LIFE TECHNOLOGIES CORPORATION, priority 2018, dated 2024).

One series deals with HASM cells. As to conditions: HASM cells tested individually on separate device. An excerpt: (§1) For the experiments for which data is presented in FIG. 13A through FIG. 13C, three distinct cell types were chosen to test for the ability of the instrument to discriminate cell type based on response to FCCP. To generate the data set comparing widely varying cell types, donor-derived primary human aortic smooth muscle (HASM) cells (HASMC; Gibco cat# C0075C), human cervical cancer cells (HeLa cells; ATCC catalogue number CRM CCL 2) and a mouse-derived […] cell line (MMM cells; ATCC catalogue number J774A.1) were selected for the study.
(§2) FIG. 13A through FIG. 13C are average background-subtracted temporal dose-responses curves for each type of cell line tested individually on separate devices. FIG. 13A is set of dose-response curves for HASM cells, FIG. 13B is a set of dose-response curves for HeLa cells, and FIG. 13C is a set of dose-response curves for MMM cells. For the data shown in FIG. 14A through FIG. 14C, a mixture of the cells were exposed to 100 μM FCCP and their responses recorded in order to understand whether or not the different cell types could be identified by their response to FCCP. FIG. 14A illustrates composite temporal dose-response curves for selected cells in a mixture of different cell types in which the cells were subjected to FCCP. FIG. 14B is an electroscopic image of the experiment of FIG. 14A taken at a time corresponding to frame 40 (2.7 seconds), in which squares within the cells indicate the pixels that were sampled for the data of FIG. 14A. FIG. 14C is the electroscopic image of FIG. 14B for which the squares within the cells in […] have removed to provide a clear image of the cells.
(§3) The sensor array devices used in experiments from which data for FIG. 13A though FIG. 14C was generated was a Chip 2 device of FIG. 3, selective for sensing hydrogen ion, and included a microwell array.

Another series deals with HeLa cells. As to conditions: HeLa cells tested individually on separate device.
Excerpt: as §1, §2, §3

The next series concerns MMM cells. As to conditions: MMM cells tested individually on separate device.
Excerpt: as §1, §2, §3

In another series the test system is HEPG2 cells. As to conditions: 100 μM; seen for some cells (CHEPG1, CHEPG2), not all (CHEPG3).
For another series, the system named is U-2OS cells. As to conditions: series of concentration jumps.
In series [1] the test system is voltage-gated calcium ion channels. The experiment in a line: ChemFET sensor array: 30 mM KCl depolarizing stimulus in presence of calcium channel blocker, control vs transfected U-2OS cells. The class given is cell-based. As to conditions: 10 μM, U-2OS control cells vs U-2OS transfected with voltage-gated calcium channel alpha, beta and alpha-2-delta subunits. An excerpt:
FIG. 9A illustrates temporal response curves for U-2OS cells (C1 and C2) and U-2OS cells transfected with voltage-gated calcium channel alpha, beta and alpha-2-delta subunits (C3 and C4). The temporal response curves presented in FIG. 9A represent data collected over an area of interest for the U-2OS cells in comparison to transfected U-2OS cells, in which the impact of cell response for each type of cell treated with the calcium ion channel blocker verapamil was monitored through a cycle of an initial state of resting potential, followed by conditions for depolarization of membrane potential, and return to resting potential.
Briefly, the sensor array device surface was soaked for 30 minutes with 70% ethanol in water, then rinsed with PBS before adding a solution of 0.1% poly-D-lysine, which was allowed to sit for two hours. The device was then rinsed twice with 200 μL of a cell culture medium, for example, McCoy's 5A modified medium with 10% fetal calf serum. After rinsing with the cell culture medium, the devices were ready for plating with a cell suspension.
Preparation of transfected cells was done using a cell suspension of 1×10^6 cells per mL. Mammalianized BacMam gene delivery particles encoding a mixture of voltage-gated calcium ion channel alpha, beta and alpha-2-delta subunits was added to the cell suspension to reconstitute functional channels. […]

Like-named read-outs stand apart in the source and are kept apart here.

Method for HEPG2 cells: The HEPG2 cells were resuspended at 1×10^6 cells per mL and plated onto chips for overnight incubation in a cell culture incubator to allow the cells to adhere to the prepared surface of the chip.

In the case of `N#CC(C#N)=NNc1ccc(OC(F)(F)F)cc1` [FCCP, carbonyl cyanide-4-(trifluoromethoxy)phenylhydrazone], the “temporal response to FCCP” value with HASM cells was “distinct kinetic and amplitude response”; with HeLa cells, “distinct kinetic and amplitude response”; with MMM cells, “distinct kinetic and amplitude response”. In the series with HEPG2 cells, the “cellular response observed during application (electroscopic image)” value is given as “efflux of cellular contents”. The “averaged cellular temporal response” value with U-2OS cells (absence of oligomycin) and in the series with U-2OS cells (presence of oligomycin (pretreatment)) was “dose-dependent FCCP responses” each time.

Regarding `COc1ccc(CCN(C)CCCC(C#N)(c2ccc(OC)c(OC)c2)C(C)C)cc1OC` (stereo not shown) [verapamil], the “activity of blocker on temporal response to depolarizing stimulus” value in series [1] was “selective activity of a blocker on cultures that express the target protein”.
